Results from US20220370464A1, “COMPOSITIONS AND METHODS OF TREATING OR PREVENTING OCULAR INFECTIONS WITH FILOCICLOVIR” (Microbiotix, Inc., priority 2019, published 2022).

Legend:
[1] = test system: Adenovirus 5 (AdV5); assay: Cytopathic effects (CPE) reduction assay, AdV5 in HFF cells, 384-well; assay type: cell-based, human adenovirus 5 (AdV5); details: for selectivity ratio: human, adenovirus 5, HFF cells, read-out: SI (selective index, CC50/EC50)
Procedure: Antiviral and cytotoxicity data were obtained in a series of three to five separate experiments for each virus to provide an accurate estimate of antiviral activity and statistical data. Each assay included positive and negative control compounds as well as infected and uninfected controls to ensure the integrity of the experiment.
The CPE reduction assays were performed in monolayers of human foreskin fibroblast (HFF) cells (5000/well) in 384-well plates in assay media consisting of MEM with Earle's salts, 2% FBS and standard concentrations of L-glutamine, penicillin and gentamycin. 5000 cells were seeded in 384-well microtiter plates and incubated at 37° C. in a humidified 5% CO2 incubator for 24 hours to allow for formation of confluent monolayers.
Cell monolayers were infected at a multiplicity of infection (MOI) of approximately 0.005 PFU/cell with virus strains including AdV5. […] Cytopathology was determined by the addition of CellTiter-Glo® reagent (Promega, Madison, Wis.). Concentrations of antiviral test compounds sufficient to reduce CPE by 50% (EC50) were interpolated from the experimental data using standard methods in Microsoft® Excel.

[2] = test system: AdV6; assay: Therapeutic efficacy against intravenous AdV6 in immunosuppressed male Syrian hamsters; details: for mortality / survival (FIG. 6A): AdV6-infected hamsters; for virus burden in the liver (FIG. 8) / serum transaminase (ALT) levels (FIG. 7): 5 days post challenge
Procedure: Four dose levels were tested: 10, 30, 60 and 100 mg/kg p.o. q.d. The highest dose was determined based on rat toxicology data.
All hamsters were immunosuppressed using cyclophosphamide (CP). CP was administered intraperitoneally at a dose of 140 mg/kg, and then twice weekly at a dose of 100 mg/kg.
Filociclovir, in powdered form, was suspended in 0.4% carboxymethyl cellulose (Sigma C5678, Lot #SLBS7273) at 1, 3, 6, and 10 mg/ml and sonicated to visual homogeneity and aliquots stored at 4° C. Aliquots were allowed to equilibrate to room temperature before dosing. Hamsters weighing approximately 100 g were dosed with a 1 ml volume of the appropriate suspension for the 10, 30, 60, and 100 mg/kg dose levels.
The hamsters were divided into 8 groups, 15 hamsters/group, (with the exception of Group 2, which had only 5 hamsters; see Table 3), immunosuppressed, and then injected i.v. with vehicle (Groups 1-2) or 2×10^10 PFU/kg of AdV6 (Groups […]). Groups 1 and 3 received drug vehicle (p.o. q.d.), Group 4 received 10 mg/kg filociclovir (p.o. q.d.), Group 5 received 30 mg/kg filociclovir (p.o. q.d.), Group 6 received 60 mg/kg filociclovir (p.o. q.d.), Groups 2 and 7 received 100 mg/kg filociclovir (p.o. q.d.), and Group 8 received cidofovir (20 mg/kg, 3 times weekly). For all groups, drug administration started 1 day before challenge, and continued according to the schedule above for the duration of the study.
The body weights and any signs of morbidity of the animals were recorded daily. At 5 days post challenge, 5 hamsters (designated at the start of the experiment) from each group (with the exception of Group 2) were sacrificed, and gross pathological observation was performed. Serum and liver samples were collected and the virus burden in liver was determined by a TCID50 assay, and the serum was analyzed for transaminase levels. The remaining 10 hamsters were sacrificed at 14 days post challenge. Hamsters that became visually moribund before Day 14 were sacrificed as needed. In addition to the hamsters observed to be moribund, all hamsters that lost more than 20% of their original body weight were also sacrificed. For the hamsters sacrificed at the conclusion of the experiment and those sacrificed as moribund, serum and liver tissues were collected and banked for possible determination of serum transaminase levels and virus burden in the liver. Liver tissue was preserved in formalin for possible histopathological examination.
As such, there were two endpoints for the study: One, collected from ten animals, was survival and body weight gain/loss (with the option of assaying virus burden in the liver and serum transaminase levels). The other, collected from 5 animals for the Day 5 time point, was virus burden in the liver and serum transaminase levels.

[3] = test system: AdV5; assay: Adenovirus/NZW rabbit ocular model; assay type: in vivo, New Zealand White (NZW) rabbit
Procedure: The ability of filociclovir to inhibit adenovirus-related conjunctivitis was tested in a New Zealand White (NZW) rabbit ocular model.
20 NZW rabbits (1.1-1.4 kg) were given general anesthesia with ketamine & xylazine, topical anesthesia with proparacaine, and corneal scarification (12 cross-hatched strokes of a #25 needle) followed by inoculation in both eyes with 50 μl of […] of AdV5 M (6.0×10^8 PFU/ml). Eyes were closed and gently rubbed for 5 seconds to ensure contact of the virus on all ocular surfaces. All rabbits were treated with analgesia in the form of intramuscular injections of ketoprofen (1.5 mg/kg).
Beginning 2 hours after inoculation, all eyes were cultured for virus. Following topical anesthesia with proparacaine, a single cotton-tipped swab was placed into the lower fornix of each eye, rolled over the cornea into the upper fornix to recover adenovirus from the tear film and corneal and conjunctival surfaces. The swabs from each eye were placed individually into tubes containing 1 ml of outgrowth media and were frozen at −80° C. pending plaque assay.
On Day 1, the rabbits were divided into 4 treatment groups for drug administration as set forth in the chart below. The four treatment groups were 0.5% Filociclovir; 0.1% Filociclovir; 0.5% cidofovir; and the negative vehicle control (10% 2-Hydroxpropyl)-β-cyclodextrin, 0.2% cremophore).
Treatments began on Day 1 and drops were administered with at least a 2-hour interval between drops. The eyes of each rabbit were cultured for virus on days 1, 3, 4, 5, 7, 9, 11, and 14 post-inoculation (PI) at least 1 hour after the final drop. At various times during the course of the experiment, AdV5 titers were determined on A549 cell monolayers using a standard plaque assay. The ocular cultures to be titered were thawed, diluted (1:10) and inoculated onto A549 monolayers. The virus was adsorbed for 3 hours. Following adsorption, 1 ml of media plus 0.5% methylcellulose was added to each well, and the plates were incubated at 37° C. in a 5% CO2-water vapor atmosphere. After 7 days incubation, the cells were stained with 0.5% gentian violet, and the numbers of plaques were counted under a dissecting microscope (25λ). The viral titers were then calculated and expressed as plaque-forming units per milliliter (PFU/ml). The data were analyzed statistically using True Epistat and/or Minitab statistical software. Outcome measures included Daily AdV5-Positive Cultures per Total (FIG. 9), Duration of Shedding (FIG. 10) and Daily Viral Titers (FIG. 11). Significance was established at the p≤0.05 confidence level.

[4] = 0.1% topical 4 times daily for 10 days, compared with Vehicle control
[5] = 0.5% filociclovir compared with 0.5% cidofovir
[6] = 0.5% filociclovir compared with the 0.1% filociclovir group
[7] = 0.5% topical 4 times daily for 10 days, compared with Vehicle control
[8] = 0.5% topical 2 times daily for 7 days, compared with Vehicle control

Structure (SMILES): Nc1nc2c(ncn2/C=C2/CC2(CO)CO)c(=O)[nH]1 [Filociclovir, 2-amino-9-{(Z)-[2,2-bis(hydroxymethyl)cyclopropylidene]methyl}-3,9-dihydro-6H-purin-6-one]
- concentration effective to reduce AdV replication (FIG. 1) ([1]; AdV5, tested 0.01 to 100 μM, 'as low as'): ≥ 0.2 µM
- selectivity ratio [1]: 43
- body weight loss (FIG. 6B) ([2]; 10 mg/kg p.o. q.d.): reversed
- mortality / survival (FIG. 6A) ([2]; 10 mg/kg p.o. q.d.): prevented mortality
- body weight loss (FIG. 6B) ([2]; 30 mg/kg p.o. q.d.): reversed
- mortality / survival (FIG. 6A) ([2]; 30 mg/kg p.o. q.d.): prevented mortality
- toxicity for AdV6-infected hamsters ([2]; 60 mg/kg p.o. q.d.): toxic
- toxicity for AdV6-infected hamsters ([2]; 100 mg/kg p.o. q.d.): toxic
- virus burden in the liver (FIG. 8) ([2]; 10 mg/kg p.o. q.d.): one animal in the AdV6+10 mg/kg filociclovir group with a very low liver virus burden
- virus burden in the liver (FIG. 8) ([2]; 30 mg/kg p.o. q.d.): nondetectable level
- serum transaminase (ALT) levels (FIG. 7) ([2]; filociclovir-treated animals): none of the filociclovir- or CDV-treated animals had elevated serum transaminase levels
- necropsy finding at day 5 sacrifice ([2]; AdV6+60 mg/kg p.o. q.d.): extensive kidney pathology
- necropsy finding at day 5 sacrifice ([2]; AdV6+100 mg/kg p.o. q.d.): extensive kidney pathology
- adenovirus positive cultures per total (FIG. 9) [3, 4]: fewer number of adenovirus positive cultures per total on Days 7, 9, and 11
- adenovirus titers (FIG. 11) [3, 4]: significantly lower adenovirus titers on Days 1, 3, 4, 5, 7, 9, and 11
- duration of shedding (FIG. 10) [3, 4]: shorter duration of shedding
- adenovirus positive cultures per total [3, 5]: fewer number of adenovirus positive cultures per total on Day 4
- adenovirus titers [3, 5]: significantly lower adenovirus titers on Days 1, 3, 4, and 5
- adenovirus positive cultures per total (FIG. 9) [3, 6]: fewer number of adenovirus positive cultures per total on Day 4
- adenovirus titers (FIG. 11) [3, 6]: significantly lower adenovirus titers on Days 3, 4, and 5
- adenovirus positive cultures per total (FIG. 9) [3, 7]: fewer number of adenovirus positive cultures per total on Days 4, 5, 7, 9, and 11
- adenovirus titers (FIG. 11) [3, 7]: significantly lower adenovirus titers on Days 1, 3, 4, 5, 7, 9, and 11
- duration of adenovirus shedding (FIG. 10) [3, 7]: shorter duration of adenovirus shedding

Structure (SMILES): Nc1ccn(C[C@@H](CO)OCP(=O)(O)O)c(=O)n1 [CDV, cidofovir, reference compound]
- EC50 ([1]; Human mastadenovirus C, AdV 384 Well CPE, HFF cells, average and SD from five independent experiments): 4 ± 2 µM
- selectivity ratio [1]: 24
- serum transaminase (ALT) levels (FIG. 7) ([2]; 20 mg/kg i.p. 3x weekly): none of the filociclovir- or CDV-treated animals had elevated serum transaminase levels
- virus burden in the liver (FIG. 8) ([2]; 20 mg/kg i.p. 3x weekly): very low to nonquantifiable levels
- adenovirus positive cultures per total (FIG. 9) [3, 8]: fewer number of adenovirus positive cultures per total on Days 7, 9, and 11
- adenovirus titers (FIG. 11) [3, 8]: significantly lower adenovirus titers on Days 3, 4, 5, 7, 9, and 11
- duration of shedding (FIG. 10) [3, 8]: shorter duration of shedding
